{
  "source": "patent US10265383B2",
  "about": "“Treatment of radiation injury using ghrelin” (priority 2014, dated 2019)",
  "key": {"rat jejunum": {"test_system": "rat jejunum", "experiment": "Histopathology of jejunum after WBI (H&E, PAS)", "type": "in vivo", "details": "Day 7 after 10 Gy WBI", "protocol": "(§1) Animal model of whole body irradiation. Rats were exposed to whole body irradiation (WBI) of 10 Gray (Gy) using a Gammacell® 1000 Irradiator (Atomic Energy of Canada Ltd) [radiation source: Cesium-137 (^137Cs)] delivered at a dose rate of about 2.5 GY/min. The animals were sedated with intra-peritoneal pentobarbital (40 mg/kg BW) prior to irradiation. During radiation, the container rotated continuously in front of the radiation source for even exposure. The animals were then returned to their cages, and food and water were provided.\n(§2) Blood and Tissue Collection after WBI. Rats exposed to 10 Gy WBI were treated with 20 nmol/rat human ghrelin once a day for 6 days starting at 24 h after radiation. At the 7th day, rats were euthanized, and blood, liver and the small intestine were removed under sterile conditions. The blood was allowed to clot and following centrifugation, the serum was transferred into pyrogenic free sterile tubes, and stored at −80° C. until further analysis. Liver (0.25 g) was snap-frozen in liquid nitrogen and stored at −80° C. for subsequent bacterial translocation analysis. Small intestine, 10-15 cm of the ileum, was harvested for gut permeability studies, 10 cm of jejunum was collected for histopathology, and the remaining 10 cm jejunal segment each was collected for RNA and protein analyses.\nHistopathology. Jejunal segments were fixed in 1:10 buffered formalin and embedded in paraffin. Tissue blocks were sectioned at a thickness of 5 μm, transferred to glass slides, and stained with hematoxylin and eosin (H&E). The sections were observed under 100× magnification using a Nikon Eclipse Ti inverted microscope equipped with the Nikon Digital Sight Camera (Nikon Inc. Melville, N.Y.). Villus height was determined by measuring the distance from villus-crypt junction to the villus tip and crypt depth was determined by the distance from villus-crypt junction to basal crypt cells using the Nikon software. For each rat, 100 measurements of villus height and crypt depth were obtained from 5 circumferences. Periodic Acid Schiff (PAS) stained sections were used to quantify the number of goblet cells per villus. Three rats in each group were used to calculate the mean."}, "serum albumin": {"test_system": "serum albumin", "experiment": "Serum albumin level after WBI", "type": "in vivo, rat", "details": "Day 7 after 10 Gy WBI; WBI decreased it by 19%", "protocol": "as §1\nas §2, with “Small intestine, 10-15 cm of the ileum, was harvested for gut permeability studies, 10 cm of jejunum was collected for histopathology, and the remaining 10 cm jejunal segment each was collected for RNA and protein analyses.” left out\nSerum glucose and albumin levels. Serum levels of glucose and albumin were determined using Liquid Glucose Hexokinase Reagent Set and Albumin Reagent Set (Pointe Scientific, Inc.) respectively according to manufacturer's instructions."}, "Bcl-xl": {"test_system": "Bcl-xl", "experiment": "Western blot of jejunal Bcl-xl protein", "type": "in vivo, rat", "details": "jejunum, Day 7 after 10 Gy WBI", "protocol": "as §1\nBlood and Tissue Collection after WBI. Rats exposed to 10 Gy WBI were treated with 20 nmol/rat human ghrelin once a day for 6 days starting at 24 h after radiation. At the 7th day, rats were euthanized, and blood, liver and the small intestine were removed under sterile conditions. […]\nWestern blot analysis. […] After overnight incubation with the primary antibodies at 4° C., the membranes were washed with TBS-T Immunoreactive bands were detected using HRP-linked secondary antibody (Southern Biotech, Birmingham, Ala.) and the Enhanced Chemiluminescence (ECL) Western blot detection kit (Amersham, Piscataway, N.J.). The immunoblots were exposed to X-ray film and analyzed with the NIH Image J analysis system. […]"}, "CD73": {"test_system": "CD73", "experiment": "Jejunal CD73 mRNA expression by real time PCR", "type": "in vivo, rat", "details": "jejunum, Day 7 after 10 Gy WBI; vehicle decreased by 62%", "protocol": "as §1, §2\nTotal RNA extraction and real time PCR. […]"}},
  "note": "Where no end group is shown, it is not given here. The star is where a group is joined. Octanoyl = CCCCCCCC(=O)*",
  "data": [
    {"substance": "ghrelin (GSS(Octanoyl)FLSPEHQRVQQRKESKKPPAKLQPR; listed as Homo sapiens) [human ghrelin]", "values": [
      {"measurement": "intestinal integrity and morphology (H&E)", "setting": "rat jejunum; 6 days treatment starting at 24 h", "value": "improved the intestinal integrity and morphology"},
      {"measurement": "goblet cell number/villus, increase from Sham", "setting": "rat jejunum; jejunum PAS stain, vehicle 29%", "value": 5, "unit": "%"},
      {"measurement": "crypt depth, reduction from Sham", "setting": "rat jejunum; jejunum, 20 nmol/rat for 6 days from 24 h, vehicle 14%", "value": 2.8, "unit": "%"},
      {"measurement": "villus length, reduction from Sham", "setting": "rat jejunum; jejunum, 20 nmol/rat for 6 days from 24 h, vehicle 19%", "value": 2.0, "unit": "%"},
      {"measurement": "serum albumin levels", "setting": "serum albumin", "value": "restored to sham values"},
      {"measurement": "Bcl-xl protein levels, restored by", "setting": "Bcl-xl; vehicle 34% reduction", "value": 75, "unit": "%"},
      {"measurement": "Bcl-xl/Bax ratio, increase from the vehicle", "setting": "Bcl-xl; vehicle 54% reduction", "value": 55, "unit": "%"},
      {"measurement": "CD73 mRNA expression, restored by", "setting": "CD73", "value": 70, "unit": "%"}
    ]}
  ]
}
